The structures appear in SMILES notation.

In this test the test system is lymphoma cell line NU-DUL-1. The test can be described thus: Standard 6-day growth-death assay, NU-DUL-1. It counts as cell-based. Conditions: single agent or fixed 1:1 combination; for IC50: average of n=2, read-out: gIC50; for Ymin-T0 / gIC100: average of n=2. As to the method: The majority cell lines were obtained from GSK BioCat group, American Type Culture Collection (ATCC), or the Deutsche Sammlung von Mikroorganismen and Zellbulturen (DSMZ). All cell lines were maintained in growth medium in T75 cm^2 flasks, incubated at 37° C. with 5% CO2 and split every 3 to 4 days. Growth media conditions and cell line information are detailed in Table 1. Cells were counted using the Vi-Cell Analyzer (Beckman Coulter ViCell) to obtain viable cell counts.
Optimal cell seeding density was determined for all cell lines by monitoring proliferation over a range of seeding densities in 384-well format and identifying the seeding density at which cells grew logarithmically throughout six days. 50 uL of cells per well were plated in 384-well plates at the optimal seeding density in preferred supplemented culture media. Three plates were prepared per cell line and incubated overnight at 37° C. in 5% CO2.
In these studies, lymphoma cell lines were treated with PRMT5 inhibitor, compound A and BCL-2 targeted inhibitor, ABT-199 single agent or in combination using a fixed 1:1 ratio of each inhibitor over a 20-point titration. For compound A single and fixed 1:1 ratio combination with ABT-199 cell proliferation assay, cells were treated in duplicate with a 20-point, two-fold dilution series of Compound A, ABT-199 (≥14 μM top dose) single or combo treatment, and ≤0.15% DMSO final concentration. Plates were incubated for six days at the conditions described above. Cell growth was measured using CellTiter-Glo (Promega) and luminescence signal was detected with a BioTek Synergy Neo microplate reader. A plate of untreated cells was read at the time of compound/biologic addition to determine the T0 value representing the starting number of cells. Data were fit with a four-parameter equation to generate a concentration response curve using Assay Client software.
Results were background corrected by subtraction of values from wells containing no cells, expressed as a percentage of the T0 value (value at time=0), and plotted against compound concentration. The T0 value was normalized to 100% and represents the number of cells present at the time of compound addition. The cellular response was determined for each compound using a 4- or 6-parameter curve fit of cell viability against concentration using Assay Client software. Growth IC50 (gIC50) values correspond to the concentration intersecting the mid-point of the growth window (between DMSO and T0 values). Growth IC100 (gIC100) values correspond to the concentration at which 100% growth inhibition is achieved, based on the growth window. The Ymin−T0 value, a measure of net population cell growth or death, is calculated by subtracting the T0 value (100%) from the Ymin value (%) that is determined from the fit of the concentration response curve. Death EC50 (dEC50) values correspond to the concentration at which 50% net cell death is observed.
Individual curves were quality checked for three criteria: outlier data points, cell growth (population doubling ≥1.5), and proper curve fitting. […] Individual curves were QC checked for outlier data points, cell growth (population doubling ≥1.5), and proper curve fitting. Obvious outlier data points were omitted only as needed to ensure proper curve fit.
For fixed ratio screening, combination activity was assessed by the fold change in gIC50 compared to the 2 single agent curves by dividing the compound ratio as necessary. Combinations showing >3-fold and >5-fold change from single agent are described as below: • Fold changes ≥5 are considered to represent strong synergy. • Fold changes between 3.0 and 4.9 are considered to represent weak synergy. • Fold changes <3 are considered to represent no synergy.

As to `CC1(C)CCC(CN2CCN(c3ccc(C(=O)NS(=O)(=O)c4ccc(NCC5CCOCC5)c([N+](=O)[O-])c4)c(Oc4cnc5[nH]ccc5c4)c3)CC2)=C(c2ccc(Cl)cc2)C1` [ABT-199, venetoclax, reference compound], the Ymin-T0 is reported as −45% and the gIC100 came out at 4.832 µM. Further, the IC50 (Homo sapiens, 144 h) came out at 3.02 µM.

On to `O=C(NC[C@H](O)CN1CCc2ccccc2C1)c1ccnc(NC2CCC2)c1` [Compound A], for which the Ymin-T0 is on record as −11% and the gIC100 amounted to 12.659 µM. In addition, the EC50 (Homo sapiens, 144 h, average of n=2, read-out: dEC50) was over 14.7 µM. Further, the IC50 (Homo sapiens, 144 h) worked out at 3.73 µM.

Values taken from US20210386738A1, “COMBINATION OF PRMT5 INHIBITORS AND BCL-2 INHIBITORS” (GLAXOSMITHKLINE INTELLECTUAL PROPERTY DEVELOPMENT LIMITED, priority 2018, published 2021).
